Results on one substance are retold here after US20220091133A1, “METHODS AND ASSAYS FOR IMMUNE PHENOTYPING” (Washington University, priority 2020, published 2022).

The test system of data set [1] is PBMCs (T cell IFN-γ production). The data set is classed as cell-based, human.
The test system is the same in data set [2]. In words: PBMC ELISpot, CD3/CD28-stimulated IFN-γ production (Example 2). The data set is classed as cell-based, human. How it is done: Fresh whole blood samples were processed within 90 min of collection as previously described (28). Briefly, blood was diluted in an equal volume of PBS and layered carefully on Ficoll Paque PLUS (GE Healthcare). The PBMC fraction was isolated following centrifugation at 500×g for 30 min at room temperature. The number of total PBMCs was determined with a Vi-CELL Viability Analyzer (Beckman Coulter, Brea, Calif.). Flow cytometry was performed on PBMC fraction for cell typing.
Innate and adaptive immune function was assessed using ELISpot analysis by measurement of the production of IFN-γ and TNF-α in ex vivo-stimulated cells following overnight culture. […] PBMCs were plated into wells in quantities of 2.5×10^4 cells per well for IFN-γ and 2.5×10^3 cells per well for TNF-α. […]
Samples were scanned, analyzed, and quality controlled for spot count, spot area, and TWI using a Cellular Technology series 6 ImmunoSpot Universal Analyzer with ImmunoSpot 7.0 professional software (Cellular Technology Analyzers, Shaker Heights, Ohio). […]
The number of cytokine-secreting cells present in each ELISpot well is referred to as spot-forming units (SFU) and is reported in two distinct ways. […] The number of lymphocytes in each well was determined based upon the absolute lymphocyte count as measured by the patients' complete blood count. […]

The subject of data set [3] is invasive fungal soft tissue infection (Trichosporon asahii, Fusarium, Saksenaea). Briefly: IL-7 immunotherapy in a patient with intractable fungal wound sepsis (clinical course, lymphocyte count). It is filed as in vivo, human. How it is done:
Twenty-four hours later, the dosage was increased to 10 μg/kg and continued every 3-4 days for 7 doses. […] As illustrated by serial pictures of the wound, the most notable change following initiation of IL-7 was to slow the progression of the invasive soft tissue necrosis (FIG. 28B, green arrows).
In addition to decreased infectious spread and fungal proliferation, with improved wound healing and healthier-appearing tissue margins, clinical indicators of severity of disease improved within days of IL-7 treatment initiation with improvement of the fever curve, tachycardia, and tachypnea (FIG. 30). Laboratory evidence of resolution of the fungal invasion included progressive decreases in total white blood cell count and increasing absolute lymphocyte counts (FIG. 28A). The patient's absolute lymphocyte count increased >6-fold from a low of 600 lymphocytes/μL to >4000 lymphocytes/μL (upper limit of normal for absolute lymphocyte counts is 3500). Of note, the increase in the patient's absolute lymphocyte count was likely due to both the effect of IL-7 in inducing lymphocyte proliferation and to the resolution of the fungal infection.

The test system of data set [4] is PBMCs (TNF-α-producing cells). Briefly: ELISpot, lipopolysaccharide-stimulated TNF-α in patient PBMCs before and after IL-7 therapy (Example 5). To be noted: concomitant with initiation of IL-7 treatment. It is filed as in vivo, human.

In the case of “IL-7: recombinant human IL-7, immunoadjuvant and potent T cell activator; R&D Systems ex vivo, RevImmune for patients”, the “mean number of IFN-γ-producing T cells following ex vivo administration of IL-7” value in data set [1] (COVID-19 patient PBMCs, anti-CD3/anti-CD28 + IL-7 50 ng/mL overnight, control without IL-7 101±21, P<0.0001) was 201±36. In addition, in data set [1] (COVID-19 patients, ELISpot), the “increase of IFN-γ production of stimulated T cells by ex vivo IL-7” value is on record as around 2 fold. Moreover, the “effect of IL-7 to increase the number of IFN-γ-producing T cells” value in data set [1] (septic and CINS patients) is given as “also observed”. Also, in data set [2] (PBMC, healthy subjects and CINS patients), the “effect of IL-7 on IFN-γ SFUs” value is “significantly increased”. Moreover, the “effect of IL-7 on T cell IFN-γ production” value in data set [2] (PBMCs, septic patients, p<0.0001) is given as “restore T cell IFN-γ production”. Besides, the “tolerability of IL-7 test dose” value in data set [3] (3 μg/kg ideal body weight intramuscularly, day 59 postinjury) is “well tolerated”. For the same substance, the “onset of significant improvement of clinical status after initiation of IL-7” value in data set [3] (10 μg/kg every 3-4 days for 7 doses after test dose) fell in the range of 4 to 7 days. Besides, in data set [3] (after resolution of wound fungal infection, >700 cm^2), the “definitive closure of open wounds” value was above 90%. For the same substance, the “absolute lymphocyte count reached” value in data set [3] (from a low of 600 lymphocytes/μL, upper limit of normal 3500) was above 4000 lymphocytes/μL. Further, the “increase of absolute lymphocyte count” value in data set [3] (fungal wound sepsis patient on IL-7) is on record as above 6 fold. Moreover, the “increase in the number of TNF-α-producing cells” value in data set [4] is on record as “multifold increases”. Also, the “increase of absolute lymphocyte count (ALC)” value in the data set on SARS-CoV-2 (COVID-19 patient after IL-7) was around 10 fold. Moreover, the “discharged home, day of hospitalization” value with SARS-CoV-2 (after IL-7 therapy) is 24 days. For the same substance, the “mechanical ventilation discontinued, day after ICU admission” value in the data set with SARS-CoV-2 (after initiation of IL-7 therapy) turned out to be 15 days.
